Test results reported in PubChem BioAssay (NCI).
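Protocol summary: plate cells (96-well), add compound at 5 concentrations, incubate 48 h, interpolate endpoints linearly. GI50 marks 50% less growth. TGI: concentration producing complete growth inhibition.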 Where a SMILES comes first, the peptide text is derived from it. [ ]: non-standard residue; d: D form. The star is where a group is joined. ξ: configuration not given here. ξF = NC(Cc1ccccc1)C(=O)O; Cbz = O=C(OCc1ccccc1)*; Aib = CC(C)(N)C(=O)O

What was measured:
Assay in all cases: DTP human tumour cell line panel, 48 h
[1] = tested on: ACHN renal
[2] = tested on: CCRF-CEM leukemia
[3] = tested on: HCT-116 colon
[4] = tested on: HCT-15 colon
[5] = tested on: KM12 colon
[6] = tested on: MALME-3M melanoma
[7] = tested on: SF-295 CNS
[8] = tested on: SN12C renal
[9] = tested on: SNB-19 CNS
[10] = tested on: TK-10 renal

Row | SMILES | TGI [1] | TGI [2] | TGI [3] | TGI [4] | TGI [5] | TGI [6] | TGI [7] | TGI [8] | TGI [9] | TGI [10] | GI50 [1] | GI50 [2] | GI50 [3] | GI50 [4] | GI50 [5] | GI50 [6] | GI50 [7] | GI50 [8] | GI50 [9] | GI50 [10]
1 | NCCSCc1ccccc1Cl | > 100 µM | 78.8 µM | > 100 µM | > 100 µM | > 100 µM | > 100 µM | > 100 µM | > 100 µM | > 100 µM | 74 µM |  |  |  |  |  |  |  |  |  | 
2 | COc1cc(-c2n/c(=C\c3c(O)[nH]c4cc(Cl)ccc34)cc3c2=Nc2ccccc2-3)cc(OC)c1OC | 22.2 µM | > 100 µM | 13.7 µM | > 100 µM | > 100 µM | 9.41 µM | 5.19 µM | 26.1 µM | 15.5 µM | 5.26 µM | 4.49 µM | 3.88 µM | 3.48 µM | 30.9 µM | 5.89 µM | 2.98 µM | 2.17 µM | 4.15 µM | 3.52 µM | 2.34 µM
3 | CCOc1ccc(N=NS(=O)(=O)O)cc1 | > 100 µM | > 100 µM | > 100 µM | > 100 µM | > 100 µM | > 100 µM | > 100 µM | > 100 µM | > 100 µM | > 100 µM |  |  |  |  |  |  |  |  |  | 
4 | N=C(N)c1ccc(-c2ccc(-c3cccs3)s2)s1 | 3.09 µM |  |  |  | 2.92 µM | 3.67 µM |  | 3.3 µM | 3.07 µM | 2.89 µM | 1.66 µM |  |  |  | 1.47 µM | 1.71 µM |  | 1.58 µM | 1.56 µM | 1.48 µM
5 | Nc1c(-c2ccccc2[N+](=O)[O-])nc2ccccn12 | > 100 µM | > 100 µM | > 100 µM | > 100 µM | > 100 µM | > 100 µM | > 100 µM | > 100 µM |  | > 100 µM |  |  |  |  |  |  |  |  |  | 
6 | CC(=O)ON1C(=O)c2cccc3cccc(c23)C1=O | > 100 µM | > 100 µM | 41.7 µM | > 100 µM | > 100 µM | 45 µM | > 100 µM |  | > 100 µM | 88.5 µM |  |  |  |  |  |  |  |  |  | 
7 | Cc1ccc(N2CCN(CCC(=O)O)CC2)cc1 | > 100 µM | > 100 µM | > 100 µM | > 100 µM | > 100 µM | > 100 µM | > 100 µM | > 100 µM | > 100 µM | > 100 µM |  |  |  |  |  |  |  |  |  | 
8 | COC(=O)C(C)(C)NC(=O)C(Cc1ccccc1)NC(=O)C(C)(C)NC(=O)OCc1ccccc1 (centres undefined) (Cbz-[Aib]-[ξF]-[Aib]-OMe) | > 100 µM | > 100 µM | > 100 µM | > 100 µM |  | > 100 µM | > 100 µM |  | > 100 µM | > 100 µM |  |  |  |  |  |  |  |  |  | 
9 | Nc1nc2ccc(OCC(O)CN3CCCCC3)cc2[n+]([O-])n1 (centres undefined) | > 100 µM | > 100 µM | > 100 µM | > 100 µM | > 100 µM | > 100 µM | > 100 µM | > 100 µM | > 100 µM | > 100 µM |  |  |  |  |  |  |  |  |  | 
10 | Cc1ccc(C(O)(c2ccc(C)cc2)c2ccccn2)cc1 | > 100 µM | > 100 µM | > 100 µM | > 100 µM |  | > 100 µM | > 100 µM | > 100 µM | > 100 µM | > 100 µM |  |  |  |  |  |  |  |  |  | 
11 | CCCCOCc1cc(CN2CCN(C)CC2)c(O)c2ncccc12 | 54.2 µM | 30.2 µM | 87 µM | 33.7 µM | > 100 µM | > 100 µM | 33.5 µM | > 100 µM | > 100 µM | > 100 µM |  |  |  |  |  |  |  |  |  | 
12 | COc1cc(Nc2nnc3n2S(=O)(=O)c2cc(C)c(Cl)cc2S3)cc(OC)c1 | 16.7 µM | > 100 µM | > 100 µM | > 100 µM | > 100 µM | 23.1 µM | 68.7 µM | > 100 µM | 77.6 µM | 81.3 µM |  |  |  |  |  |  |  |  |  | 
13 | C(=N\OCCc1ccccc1)/c1cccnc1 | > 100 µM | > 100 µM | > 100 µM | > 100 µM | > 100 µM | > 100 µM | > 100 µM | > 100 µM | > 100 µM | > 100 µM |  |  |  |  |  |  |  |  |  | 
14 | c1cncc(O[Si](Oc2cccnc2)(Oc2cccnc2)Oc2cccnc2)c1 |  |  |  | > 100 µM | > 100 µM | > 100 µM | > 100 µM | > 100 µM | > 100 µM | > 100 µM |  |  |  |  |  |  |  |  |  | 
15 | CC(C)(CCCCC(C)(C)C1NC(=O)N1)C1NC(=O)N1 | > 10 µM | > 10 µM | > 10 µM | > 10 µM | > 10 µM | > 10 µM | > 10 µM | > 10 µM | > 10 µM | > 10 µM |  |  |  |  |  |  |  |  |  | 
